Measured values: patent publication US20250163104A1, “MACROCYCLIC IMMUNOMODULATORS” (priority 2021, published 2025)
Where a SMILES comes first, the peptide text is derived from it. Bridges are numbered along the chain shown (N, C = ends). [ ]: non-standard residue; d: D form. The star is where a group is joined. Phe(3-COOH) = N[C@@H](Cc1cccc(C(=O)O)c1)C(=O)O; Phe(4-COOH) = N[C@@H](Cc1ccc(C(=O)O)cc1)C(=O)O; Bip = N[C@@H](Cc1ccc(-c2ccccc2)cc1)C(=O)O; Phe(3-Me) = Cc1cccc(C[C@H](N)C(=O)O)c1; Cha = N[C@@H](CC1CCCCC1)C(=O)O; Cit = NC(=O)NCCC[C@H](N)C(=O)O; Hpra = C#CCC[C@H](N)C(=O)O; dOrn = NCCC[C@@H](N)C(=O)O; dDab = NCC[C@@H](N)C(=O)O; Carboxymethyl = O=C(O)C*; Orn = NCCC[C@H](N)C(=O)O; Pra = C#CC[C@H](N)C(=O)O; dDap = NC[C@@H](N)C(=O)O; Dab = NCC[C@H](N)C(=O)O; Dap = NC[C@H](N)C(=O)O; X9 = c1cn(CCCN*)cn1

Each molecule was assayed against T1, human PD-1 / PD-L1-Ig binding on Jurkat cell line over-expressing human PD-1 (Jurkat-PD-1) (Homo sapiens, UniProt Q15116) (assay: Jurkat-PD-1 Cell Binding High-Content Screening Assay (CBA)). Conditions: Jurkat-PD-1 cells, PE-labeled PD-L1-Ig 20 nM final; read-out: Jurkat HPD1_PDL1 IC50.
T1 construct: expressed in transfected cells; host or cells: Jurkat
T1 sequence (Q15116 25-288): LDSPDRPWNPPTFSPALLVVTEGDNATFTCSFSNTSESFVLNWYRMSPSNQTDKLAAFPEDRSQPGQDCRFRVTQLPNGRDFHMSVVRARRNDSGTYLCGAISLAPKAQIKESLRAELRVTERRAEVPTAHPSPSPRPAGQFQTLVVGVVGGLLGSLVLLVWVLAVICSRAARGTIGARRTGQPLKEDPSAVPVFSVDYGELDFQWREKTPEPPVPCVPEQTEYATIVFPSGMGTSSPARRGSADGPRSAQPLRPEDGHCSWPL
Type: cell-based
Procedure, shortened: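 Cell-bound PE-labeled PD-L1-Ig (20 nM final, 1 h) measured by high-content imaging after fixation and Hoechst 33342 counterstain. Compound was applied first for 2 h at 37° C. to Jurkat cells over-expressing human PD-1 in DMEM with 10% FCS.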
With `CC(C)C[C@@H]1NC(=O)[C@H](Cc2c[nH]c3ccccc23)NC(=O)[C@H](CC(=O)O)NC(=O)[C@H](Cc2ccc(O)cc2)NC(=O)[C@H](Cc2ccccc2)NC(=O)CSC[C@@H](C(=O)N[C@@H](C)C(N)=O)NC(=O)[C@H](CO)NC(=O)[C@H](C(C)C)NC(=O)[C@H](CC(C)C)NC(=O)[C@H](CC(N)=O)NC(=O)[C@@H](C)NC(=O)[C@@H](CCCN)NC(=O)[C@H](C(C)C)NC(=O)[C@H](Cc2ccc(-c3ccccc3)cc2)NC1=O` [Compound 2001] ({CH2CO}-FYDWL[Bip]V[dOrn][dA]NLVSCA-NH2; thioether N-14) the IC50 was 0.0421 µM.
Molecule `CC(C)C[C@@H]1NC(=O)[C@H](Cc2c[nH]c3ccccc23)NC(=O)[C@H](CC(=O)O)NC(=O)[C@H](Cc2ccc(O)cc2)NC(=O)[C@H](Cc2ccccc2)NC(=O)CSC[C@@H](C(=O)N[C@@H](C)C(N)=O)NC(=O)[C@H](CO)NC(=O)[C@H](C(C)C)NC(=O)[C@H](CC(C)C)NC(=O)[C@H](CC(N)=O)NC(=O)[C@@H](C)NC(=O)[C@@H](CN)NC(=O)[C@H](C(C)C)NC(=O)[C@H](Cc2ccc(-c3ccccc3)cc2)NC1=O` [Compound 2002] ({CH2CO}-FYDWL[Bip]V[dDap][dA]NLVSCA-NH2; thioether N-14) has an IC50 of 0.0541 µM.
Molecule `CC(C)C[C@@H]1NC(=O)[C@H](Cc2c[nH]c3ccccc23)NC(=O)[C@H](CC(=O)O)NC(=O)[C@H](Cc2ccc(O)cc2)NC(=O)[C@H](Cc2ccccc2)NC(=O)CSC[C@@H](C(=O)N[C@@H](C)C(N)=O)NC(=O)[C@H](CO)NC(=O)[C@H](C(C)C)NC(=O)[C@H](CC(C)C)NC(=O)[C@H](CC(N)=O)NC(=O)[C@@H](C)NC(=O)[C@@H](CCN)NC(=O)[C@H](C(C)C)NC(=O)[C@H](Cc2ccc(-c3ccccc3)cc2)NC1=O` [Compound 2003] ({CH2CO}-FYDWL[Bip]V[dDab][dA]NLVSCA-NH2; thioether N-14) has an IC50 of 0.035 µM.
For `CCNC(=O)[C@H](C)NC(=O)[C@@H]1CSCC(=O)N[C@@H](Cc2ccncc2)C(=O)N[C@@H](Cc2ccc(C(=O)O)cc2)C(=O)N[C@@H](CC(=O)O)C(=O)N[C@@H](Cc2cccc(C)c2)C(=O)N[C@@H](C(C)C)C(=O)N[C@@H](Cc2ccc(-c3ccccc3)cc2)C(=O)N[C@@H]([C@@H](C)CC)C(=O)N[C@@H](CCCN)C(=O)N[C@H](CC(C)C)C(=O)N[C@@H](CCN)C(=O)N[C@@H](CC2CCCCC2)C(=O)N[C@@H](C(C)C)C(=O)N[C@@H]([C@@H](C)O)C(=O)N1` [Compound 2004], the IC50 was 0.0421 µM.
With `Cc1cccc(C[C@@H]2NC(=O)[C@H](CC(=O)O)NC(=O)[C@H](Cc3ccc(C(=O)O)cc3)NC(=O)[C@H](CN)NC(=O)CSC[C@@H](C(=O)N[C@@H](C)C(=O)NCCCn3ccnc3)NC(=O)[C@H]([C@@H](C)O)NC(=O)[C@H](C(C)C)NC(=O)[C@H](CC(C)C)NC(=O)[C@H](CCN)NC(=O)[C@@H](CC(C)C)NC(=O)[C@H](CCCN)NC(=O)[C@H](C(C)C)NC(=O)[C@H](Cc3ccc(-c4ccccc4)cc3)NC(=O)[C@H](C(C)C)NC2=O)c1` [Compound 2005] ({CH2CO}-[Dap][Phe(4-COOH)]D[Phe(3-Me)]V[Bip]V[Orn][dL][Dab]LVTCA-X9; thioether N-14) the IC50 was 0.0051 µM.
In the case of `Cc1cccc(C[C@@H]2NC(=O)[C@H](CC(=O)O)NC(=O)[C@H](Cc3ccc(OCC(=O)O)cc3)NC(=O)[C@H](CN)NC(=O)CSC[C@@H](C(=O)N[C@@H](C)C(=O)NCc3cnc(C)cn3)NC(=O)[C@H]([C@@H](C)O)NC(=O)[C@H](C(C)C)NC(=O)[C@H](CC3CCCCC3)NC(=O)[C@H](CCN)NC(=O)[C@@H](CC(C)C)NC(=O)[C@H](CCCN)NC(=O)[C@H](CCCNC(N)=O)NC(=O)[C@H](Cc3ccc(-c4ccccc4)cc3)NC(=O)[C@H](C(C)C)NC2=O)c1` [Compound 2006], the IC50 is reported as 0.0148 µM.
`CC[C@H](C)[C@@H]1NC(=O)[C@H](Cc2ccc(-c3ccccc3)cc2)NC(=O)[C@H](C(C)C)NC(=O)[C@H](Cc2cccc(C)c2)NC(=O)[C@H](CC(=O)O)NC(=O)[C@H](Cc2ccc(C(=O)O)cc2)NC(=O)[C@H](Cc2ccncc2)NC(=O)CSC[C@@H](C(=O)N[C@@H](CCN)C(N)=O)NC(=O)[C@H]([C@@H](C)O)NC(=O)[C@H](C(C)C)NC(=O)[C@H](CC2CCCCC2)NC(=O)[C@H](CCN)NC(=O)[C@@H](CC(C)C)NC(=O)[C@H](CCCN)NC1=O` [Compound 2007] was tested, and the IC50 was 0.0243 µM.
For `Cc1cccc(C[C@@H]2NC(=O)[C@H](CC(=O)O)NC(=O)[C@H](Cc3ccc(C(=O)O)cc3)NC(=O)[C@H](CN)NC(=O)CSC[C@@H](C(=O)N[C@@H](CCN)C(N)=O)NC(=O)[C@H]([C@@H](C)O)NC(=O)[C@H](C(C)C)NC(=O)[C@H](CC(C)C)NC(=O)[C@H](CCN)NC(=O)[C@@H](CC(C)C)NC(=O)[C@H](CCCN)NC(=O)[C@H](C(C)C)NC(=O)[C@H](Cc3ccc(-c4ccccc4)cc3)NC(=O)[C@H](C(C)C)NC2=O)c1` [Compound 2008] ({CH2CO}-[Dap][Phe(4-COOH)]D[Phe(3-Me)]V[Bip]V[Orn][dL][Dab]LVTC[Dab]-NH2; thioether N-14), the IC50 was 0.0199 µM.
In the case of `CCNC(=O)[C@H](CCN)NC(=O)[C@@H]1CSCC(=O)N[C@@H](CN)C(=O)N[C@@H](Cc2ccc(OCC(=O)O)cc2)C(=O)N[C@@H](CC(=O)O)C(=O)N[C@@H](Cc2cccc(C)c2)C(=O)N[C@@H](C(C)C)C(=O)N[C@@H](Cc2ccc(-c3ccccc3)cc2)C(=O)N[C@@H](CCCNC(N)=O)C(=O)N[C@@H](CCCN)C(=O)N[C@H](CC(C)C)C(=O)N[C@@H](CCN)C(=O)N[C@@H](CC2CCCCC2)C(=O)N[C@@H](C(C)C)C(=O)N[C@@H]([C@@H](C)O)C(=O)N1` [Compound 2009] ({CH2CO}-[Dap]Y(Carboxymethyl)D[Phe(3-Me)]V[Bip][Cit][Orn][dL][Dab][Cha]VTC[Dab]-NHEt; thioether N-14), the IC50 is reported as 0.0058 µM.
Work on `Cc1cccc(C[C@@H]2NC(=O)[C@H](CC(=O)O)NC(=O)[C@H](Cc3ccc(OCC(=O)O)cc3)NC(=O)[C@H](CN)NC(=O)CSC[C@@H](C(=O)N[C@@H](CCN)C(N)=O)NC(=O)[C@H]([C@@H](C)O)NC(=O)[C@H](C(C)C)NC(=O)[C@H](CC3CCCCC3)NC(=O)[C@H](CCN)NC(=O)[C@@H](CC(C)C)NC(=O)[C@H](CCCN)NC(=O)[C@H](CCCNC(N)=O)NC(=O)[C@H](Cc3ccc(-c4ccccc4)cc3)NC(=O)[C@H](C(C)C)NC2=O)c1` [Compound 2010] ({CH2CO}-[Dap]Y(Carboxymethyl)D[Phe(3-Me)]V[Bip][Cit][Orn][dL][Dab][Cha]VTC[Dab]-NH2; thioether N-14) yielded an IC50 of 0.0103 µM.
Work on `Cc1cccc(C[C@@H]2NC(=O)[C@H](CC(=O)O)NC(=O)[C@H](Cc3ccc(OCC(=O)O)cc3)NC(=O)[C@H](CN)NC(=O)CSC[C@@H](C(=O)N[C@@H](CCCN)C(N)=O)NC(=O)[C@H]([C@@H](C)O)NC(=O)[C@H](C(C)C)NC(=O)[C@H](CC3CCCCC3)NC(=O)[C@H](CCN)NC(=O)[C@@H](CC(C)C)NC(=O)[C@H](CCCN)NC(=O)[C@H](CCCNC(N)=O)NC(=O)[C@H](Cc3ccc(-c4ccccc4)cc3)NC(=O)[C@H](C(C)C)NC2=O)c1` [Compound 2011] ({CH2CO}-[Dap]Y(Carboxymethyl)D[Phe(3-Me)]V[Bip][Cit][Orn][dL][Dab][Cha]VTC[Orn]-NH2; thioether N-14) yielded an IC50 of 0.0119 µM.
Molecule `C#CCC[C@@H]1NC(=O)[C@H](CC2CCCCC2)NC(=O)[C@H](CCN)NC(=O)[C@@H](CC(C)C)NC(=O)[C@H](CCCN)NC(=O)[C@H](C(C)C)NC(=O)[C@H](Cc2ccc(-c3ccccc3)cc2)NC(=O)[C@H](C(C)C)NC(=O)[C@H](Cc2cccc(C)c2)NC(=O)[C@H](CC(=O)O)NC(=O)[C@H](Cc2ccc(OCC(=O)O)cc2)NC(=O)[C@H](CN)NC(=O)CSC[C@@H](C(N)=O)NC(=O)[C@H]([C@@H](C)O)NC1=O` [Compound 2012] ({CH2CO}-[Dap]Y(Carboxymethyl)D[Phe(3-Me)]V[Bip]V[Orn][dL][Dab][Cha][Hpra]TC-NH2; thioether N-14) has an IC50 of 0.0158 µM.
Work on `C#CC[C@@H]1NC(=O)[C@H](CC2CCCCC2)NC(=O)[C@H](CCN)NC(=O)[C@@H](CC(C)C)NC(=O)[C@H](CCCN)NC(=O)[C@H](C(C)C)NC(=O)[C@H](Cc2ccc(-c3ccccc3)cc2)NC(=O)[C@H](C(C)C)NC(=O)[C@H](Cc2cccc(C)c2)NC(=O)[C@H](CC(=O)O)NC(=O)[C@H](Cc2ccc(OCC(=O)O)cc2)NC(=O)[C@H](CN)NC(=O)CSC[C@@H](C(N)=O)NC(=O)[C@H]([C@@H](C)O)NC1=O` [Compound 2013] ({CH2CO}-[Dap]Y(Carboxymethyl)D[Phe(3-Me)]V[Bip]V[Orn][dL][Dab][Cha][Pra]TC-NH2; thioether N-14) yielded an IC50 of 0.0212 µM.
For `CC(C)C[C@@H]1NC(=O)[C@H](Cc2c[nH]c3ccccc23)NC(=O)[C@H](CC(=O)O)NC(=O)[C@H](Cc2ccc(C(=O)O)cc2)NC(=O)[C@H](Cc2cccc(C(=O)O)c2)NC(=O)CSC[C@@H](C(=O)NCC(N)=O)NC(=O)[C@H](CO)NC(=O)[C@H](C(C)C)NC(=O)[C@H](CC2CCCCC2)NC(=O)[C@H](CCN)NC(=O)[C@@H](CC(C)C)NC(=O)[C@H](CCCN)NC(=O)[C@H](C(C)C)NC(=O)[C@H](Cc2ccc(-c3ccccc3)cc2)NC1=O` [Compound 2014] ({CH2CO}-[Phe(3-COOH)][Phe(4-COOH)]DWL[Bip]V[Orn][dL][Dab][Cha]VSCG-NH2; thioether N-14), the IC50 was 0.0172 µM.
In the case of `CCNC(=O)[C@H](C)NC(=O)[C@@H]1CSCC(=O)N[C@@H](CN)C(=O)N[C@@H](Cc2ccc(OCC(=O)O)cc2)C(=O)N[C@@H](CC(=O)O)C(=O)N[C@@H](Cc2cccc(C)c2)C(=O)N[C@@H](C(C)C)C(=O)N[C@@H](Cc2ccc(-c3ccccc3)cc2)C(=O)N[C@@H](CCCNC(N)=O)C(=O)N[C@@H](CCCN)C(=O)N[C@H](CC(C)C)C(=O)N[C@@H](CCN)C(=O)N[C@@H](CC2CCCCC2)C(=O)N[C@@H](C(C)C)C(=O)N[C@@H](CN)C(=O)N1` [Compound 2015] ({CH2CO}-[Dap]Y(Carboxymethyl)D[Phe(3-Me)]V[Bip][Cit][Orn][dL][Dab][Cha]V[Dap]CA-NHEt; thioether N-14), the IC50 is reported as 0.0105 µM.
